Results taken from ChEMBL document CHEMBL1151275, “An anthraquinone with potent quinone reductase-inducing activity and other constituents of the fruits of Morinda citrifolia (noni)” (J Nat Prod, 2005).

What was measured:
[1] = Cytotoxicity against mouse Hepa-1c1c7 cells after 48 hrs by crystal violet staining; type: cell-based; conditions: Hepa-1c1c7, 48 h
[2] = Chemoprevention index, ratio of IC50 for mouse Hepa-1c1c7 cells to drug level required to double specific NADPH:quinone reductase activity in mouse Hepa-1c1c7 cells; type: functional

SMILES	IC50 [1]	Ratio [2]
COc1c(O)cc2c(c1O)C(=O)c1ccc(O)cc1C2=O	> 69.9 µM	>7770
COc1ccc(O)c2c1C(=O)c1ccc(CO)c(O)c1C2=O	> 66.6 µM	>39.9
C[S@+]([O-])CCCCN=C=S [L-SULFORAPHANE]	9.77 µM	28.7
